Data on 1 compound can be found in PMC13183915, “A platinum butterfly effect: small changes turn an anticancer drug into a non-toxic metalloantibiotic with in vivo efficacy” (npj Antimicrobials and Resistance, 2026).

The test system of one data set is C. albicans. Details: method as in PMID 36311838. Particulars: cited from earlier work.
Data set [1] concerns RpoC-GFP (B. subtilis 1048). As to the kind of experiment: Localization of RpoC-GFP (transcription reporter). It counts as cell-based, Bacillus subtilis. The note with it: 3.12 µM Pt1, 25 µM Pt8; 30 and 60 min. Here is the method: (§1) B. subtilis strains were grown in LB containing appropriate inducer concentrations as specified in Table S10. After reaching an OD600 of 0.3, cultures were split and treated with antibiotics. Samples were withdrawn after 30 and 60 min of treatment, spotted on glass slides covered with 1% agarose films, and immediately imaged.
Figure S9: Localization of RpoC-GFP (B. subtilis 1048). Cultures were treated with 3.12 µM
(§2) (1 picture or pasted object on this page, not shown here)

The subject of another data set is MRSA NRS 191. The experiment in a line: Broth microdilution MIC, MRSA NRS 191. Format: cell-based, S. aureus. Particulars: MRSA NRS 191. On the procedure: (§3) The data is given in supporting information (Table S5). Before starting the experiment, a single colony was picked from MHA plate, inoculated in MHBII and incubated overnight at 37 °C with shaking for 18–24 h to get the starter culture. Antibiotic susceptibility testing was conducted according to the CLSI (Clinical & Laboratory Standards Institute) guidelines using the broth microdilution assay. 10 mg/mL stock solutions of test compounds were prepared in DMSO. Bacterial cultures were inoculated in MHBII and optical density (OD) was measured at 600 nm, followed by dilution to achieve ~10^6 CFU/mL. The compounds were tested from 64 to 0.5 mg/L in two-fold serial diluted fashion with 2.5 μL of each concentration added to well of a 96-well round bottom microtiter plate. Later, 97.5 μL of bacterial suspension was added to each well containing either test compound or appropriate controls. […] The MIC is defined as the lowest concentration of the compound at which there is absence of visible growth. For each test compound, MIC determinations were carried out independently three times using duplicate samples.

In data set [2] the test system is S. aureus ATCC 29213. The experiment in a line: Drug interaction study (chequerboard assay). It counts as cell-based. On the procedure: All compounds were freshly prepared for the experiment. […] Following incubation, the fractional inhibitory concentration index (FICI) was calculated with the formula FICI = […], whereby FICA = MIC of drug A in combination/MIC of drug A alone and FICB = MIC of drug B in combination/MIC of drug B alone. A drug combination is considered synergistic when ∑FICI is ≤0.5, indifferent when ∑FICI is >0.5 to 4, and antagonistic when ∑FICI is >4.

The next data set concerns B. subtilis bSS82. The experiment in a line: Bacterial cytological profiling (BCP). Format: cell-based, Bacillus subtilis. The text has this: To get an overview of the cellular effects of the compounds, we employed bacterial cytological profiling (BCP). To this end, we used a strain intracellularly expressing green-fluorescent protein (GFP) from the strong, constitutive PrpsD promoter (B. subtilis bSS82[37]), stained with the membrane dye Nile red and the DNA dye DAPI. Combined with phase contrast microscopy, this setup allows simultaneous assessment of cell morphology, cell lysis, pore formation, membrane morphology, and nucleoid morphology in one assay.
BCP was performed according to Wenzel et al.[71]. In short, B. subtilis strain […] (PrpsD-gfp) was grown to an OD600 of 0.3 prior to splitting of parent cultures and addition of antibiotics. Samples were taken for microscopy after 30, 60, and 120 min of antibiotic treatment. Five minutes prior to sampling, cultures were stained with 0.5 µg/mL Nile red and 1 µg/mL DAPI for 5 min. Samples of 0.5 µL were then spotted onto 1% agarose slides[45] and images were taken immediately.
Cell length and DAPI intensity were analyzed using MicrobeJ[73]. To this end, the fit shape, rod-shaped setting was used with a minimum area of 0.5 µm, while all other settings remained at default. B. subtilis chains were seperated based on the membrane stain. Membrane stress was counted using the ObjectJ plugin[74], using the membrane setting to seperate individual cells in chains. Membrane damage was expressed as ratio of cells with visible Nile red foci and total detected cells. DNA compaction was analyzed by determining the area of the DNA and the whole cell are using advanced weka segmentation. Cells were segmented according to the GFP signal. […] Cells that were out of focus or lysed were excluded from the analysis. Statistical analysis was peformed using GraphPad Prism 10 as specified in the individual figure legends.

The subject of the next data set is B. subtilis 168CA. As to the kind of experiment: Optimal stressor concentration, acute shock growth curves. Format: cell-based, Bacillus subtilis. The note with it: after compound addition.
Data set [3] in a line: Stability by 1H and 195Pt NMR. Format: physicochemical. Here is the method:
Measurements were repeated after the 24 h and 48 h of incubations at 37 °C.
Then, 10% D2O was added and 1H NMR was recorded immediately and after 24 h of incubation at 37 °C.

The next data set deals with MRSA NRS 119. The experiment in a line: Broth microdilution MIC, MRSA NRS 119. Format: cell-based, S. aureus. The note with it: MRSA NRS 119. On the procedure: as §3
On the technique in general: Broth dilution looks for growth in wells or tubes with falling amounts of substance.

In another data set the test system is MRSA NRS 129. As to the kind of experiment: Broth microdilution MIC, MRSA NRS 129. The note with it: MRSA NRS 129. Format: cell-based, S. aureus. Here is the method:
as §3

The subject of another data set is E. coli lpxC. The note with it: lipid A biosynthesis-impaired mutant; cited from earlier work.
Data set [4] concerns methicillin-resistant S. aureus (MRSA) COL. The experiment in a line: MIC assay, MRSA COL. It counts as cell-based, Staphylococcus aureus. The note with it: MRSA COL.
For data set [5], the system named is FtsZ (B. subtilis 2020, Pxyl-gfp-ftsZ). The experiment in a line: Localization of FtsZ (cell division reporter). It counts as cell-based, Bacillus subtilis. The note with it: 3.12 µM Pt1, 25 µM Pt8; 30 and 60 min. Here is the method:
as §1
Figure S8: Localization of FtsZ in B. subtilis 2020 (Pxyl-gfp-ftsZ). Cultures were treated with
as §2

Data set [6] relates to S. aureus ATCC 29213. The experiment in a line: Resistance induction by serial passage. Format: cell-based. The note with it: after 36 days at ½ MIC. Here is the method:
The MICs of the passaged cultures were determined every 3 days and compared to that of wild type S. aureus ATCC 29213. MIC changes were recorded for 36 passages.

Another data set concerns A. baumanii BAA 1605. The experiment in a line: Broth microdilution MIC, A. baumannii BAA 1605. Format: cell-based, Acinetobacter baumannii. Here is the method: as §3
Data set [7] relates to Galleria mellonella infection model. Also on record: method as in PMID 34018686. Particulars: systematic infection model; cited from earlier work.
[8] abbreviates: 60 min, Pt1 3.125 µM, Pt8 25 µM, CisPt 100 µM.

As a reminder, the MIC is the lowest concentration that inhibits growth of the organism.

Several values for one entry are separate records, joined by “and”; a condition that tells them apart may be missing. Equal entries are not always repeated. Some results are limits rather than exact numbers.

Method for B. subtilis 168CA: To establish a starting concentration for the OSC assay, MICs against parent strain 168CA were determined under conditions equivalent to those used for mode of action assays. […] MICs were used as basis for OSC determination. To this end, growth curves were recorded using optical density (OD) measurements. Culture volumes of 20 mL were grown until reaching an OD600 of 0.3. Subsequently, the parent culture was split into 2 ml aliquots, followed by addition of different MIC multiples of Pt compounds[71]. An untreated culture served as control. Growth was followed until cultures reached the stationary phase. A concentration achieving 50–70% growth inhibition in exponential phase was selected as optimal stressor concentration. […] As controls, 0.23 µM nisin, 0.53 µM µM gramicidin, 100 µM CCCP, 0.67 µM vancomycin, 1.2 µM rifampicin, and 323.12 µM chloramphenicol were included as controls for specific assays as appropriate.

For the compound `C1=C\CC/C=C\CC/1.[Cl][Pt][Cl]` [Pt1], the fungal load result with C. albicans is reported as “reduced the fungal load”. Besides, the “localization of RpoC” value in data set [1] was “Neither protein showed a distinct phenotype”. Moreover, the minimal inhibitory concentration (MIC) in the data set with MRSA NRS 191 is 0.25 µg/mL and 0.67 µM; in the data set with S. aureus ATCC 29213 [2] (compound alone, Table S8) it was 0.125 µg/mL; against MRSA NRS 119, 0.125 – 0.25 µg/mL and 0.33–0.67 µM; with MRSA NRS 129 it was 0.125 – 0.25 µg/mL and 0.33–0.67 µM; in data set [4], 3.125 µM; against A. baumanii BAA 1605 it was over 64 µg/mL. The “FIC B” value in the data set on S. aureus ATCC 29213 [2] (antibiotic in combination with Pt1 / alone) came to 1. Besides, the “FIC (FICA+FICB)” value in the data set on S. aureus ATCC 29213 [2] (combination with Pt1) worked out at 2. For the same compound, the Interference result with S. aureus ATCC 29213 [2] (combination with Pt1, synergistic ≤0.5, indifferent >0.5 to 4, antagonistic >4) was “no interaction”. The “Nile red foci (membrane stress)” value in the data set with B. subtilis bSS82 (3.125 µM, not statistically supported) is reported as “Nile red foci, indicating membrane stress, were observed”. Also, in the data set on B. subtilis bSS82 (setting [8]), the DAPI fluorescence intensity result is “significant reduction of the DAPI signal”. Moreover, in the data set with B. subtilis bSS82 (setting [8]), the “nucleoid compaction (cell area vs DAPI-stained nucleoid area)” value was “clear nucleoid compaction”. Moreover, in the data set on B. subtilis 168CA, the “delay until the onset of growth inhibition” value is ~ 30 min. In data set [3] (DMSO-d6 with 10% D2O, 37 °C), the “time compound remains intact in aqueous environment (1H-NMR)” value is “at least 24 h”. In addition, the “time compound remains intact (NMR)” value in [3] (approximately 7 mM in DMSO-d6, 37 °C, 1H and 195Pt NMR) is listed as “at least 48 h”. Also, in the data set on E. coli lpxC, the antibacterial activity entry was “inactive”. In addition, the “localization of FtsZ” value in [5] was “remained unaffected”. Besides, the MIC after passaging in the data set on S. aureus ATCC 29213 [6] came to 0.25 µg/mL. Besides, in [7], the in vivo activity entry is on record as “no in vivo activity was observed”.
